These results are taken from patent US11542262B2, “Phosphatidylinositol 3-kinase inhibitors” (NANJING ZHENGXIANG PHARMACEUTICALS CO., LTD., priority 2019, dated 2023).

≈ marks a conversion by molar mass, not a printed value. A value given as a limit tells only on which side of the number the result lay.

For data set [1] the following is noted: dogs, reported by Pemberton et al, J Med Chem 2018; cited from earlier work.
Data set [2] has as its target PI3Kα (Homo sapiens, UniProt P42336). Briefly: ADP-Glo luminescent assay, enzymatic activity of PI3K alpha. In kind it is biochemical. Particulars: ATP 25 μM; read-out: PI3K alpha (nM) inhibitory activity (IC50). As for the experimental part: (§1) Enzymatic activity of PI3K isoforms: Enzymatic activity of the class I PI3K isoforms in the presence of the compounds of Table 1 was measured using ADP-Glo luminescent assay against PI3Kα, PI3Kβ, PI3Kδ and PI3Kγ with ATP concentration at 25 μM. IPI-549 was used as the reference compound. The compounds would be tested from 1 or 10 μM, 3-fold dilution for 10 doses, in duplicate.
(§2) Compound preparation: Dilute a compound to 100× of the final desired highest inhibitor concentration in reaction by 100% DMSO. Transfer 100 μl of this compound dilution to a well in a 96-well plate and serially dilute it with DMSO for a total of 10 concentrations.
(§3) Kinase reaction: Prepare a solution of PI3K in 1× kinase buffer at 2-fold the final concentration of each reagent in the assay. Control wells contain 1× kinase buffer without enzyme. Prepare substrate solution of PIP2 substrate and ATP in 1× kinase reaction buffer at 2-fold of the final concentration. Add concentration substrate solution to each well to the final concentration. Cover the assay plate, shake to mix, and incubate at room temperature for 1 hour. Add 5 μl of ADP-Glo reagent to each well to stop the reaction. Mix briefly with a quick spin, shake slowly on the shaker for 120 min. Add 10 ul Kinase Detection Reagent to each well, shake 1 min, equilibrate for 30 min before reading on a luminescence plate reader.
(§4) Data Analysis: Convert RLU values to percent inhibition values as Percent inhibition=(max−sample RLU)/(max−min)*100. “min”—no enzyme control; “max”—DMSO control. Fit the data in XLFit excel add-in version 5.4.0.8 to obtain IC50 values. Y=Bottom+(Top−Bottom)/(1+(IC50/X)^HillSlope).
A general note: In ADP-Glo the light output rises with the ADP produced.

Data set [3] has as its target PI3Kδ (Homo sapiens, UniProt O00329). Briefly: ADP-Glo luminescent assay, enzymatic activity of PI3K delta. The data set is classed as biochemical. Particulars: ATP 25 μM; read-out: PI3K delta (nM) inhibitory activity (IC50). The procedure:
Enzymatic activity of PI3K isoforms: Enzymatic activity of the class I PI3K isoforms in the presence of the compounds of Table 1 was measured using ADP-Glo luminescent assay against PI3Kα, PI3Kβ, PI3Kδ and PI3Kγ with ATP concentration at 25 μM. […] The compounds would be tested from 1 or 10 μM, 3-fold dilution for 10 doses, in duplicate.
as §2, §3, §4

The nature of data set [4]: Kinetic solubility test in PBS pH7.4. In kind it is physicochemical. Particulars: aqueous buffer, kinetic from dmso stock; PBS pH 7.4, 25° C., 2 hours. The procedure: 15 μL of stock solution (10 mM) was placed in order into their proper 96-well rack. 485 μL of PBS pH7.4 was added into each vial of the cap-less Solubility Sample plate. The assay was performed in singlet. Add one stir stick to each vial and seal using a molded PTFE/Silicone plug. […] After completion of the 2 hours, the samples from the Solubility Sample plate were transferred into the filter plate. all the samples were filtered using the Vacuum Manifold. Aliquot of 5 μL was taken from the filtrate followed by addition of 495 μL of a mixture of H2O and acetonitrile containing internal standard (1:1). A certain proportion of ultrapure water was used to dilute the diluent according to the peak shape. The dilution factor was changed according to the solubility values and the LC-MS signal response.
Preparation of 3 μM standards (STD): From the 10 mM DMSO STD plate, 6 μL was transferred into the remaining empty plate, and then 194 μL of DMSO was added to that plate to have a STD concentration of 300 μM. From the 300 μM DMSO STD plate, 5 μL was transferred into the remaining empty plate, and then 495 μL of a mixture of H2O and acetonitrile containing internal standard (1:1) was added to that plate to have a final STD concentration of 3 μM. A certain proportion of ultrapure water was used to dilute the diluent according to the peak shape. The concentrations of the standard samples were changed according to the LC-MS signal response.
Procedure for sample analysis: The plate was placed into the well plate autosampler. The samples were evaluated by LC-MS/MS analysis.
Data analysis: All calculations were carried out using Microsoft Excel.
The filtrate was analyzed and quantified against a standard of known concentration using LC coupled with mass spectral peak identification and quantitation. Solubility values of the test compound and control compound were calculated as follows:
[formula] • Any value of the compounds that was not within the specified limits was rejected and the experiment was repeated.

The target of data set [5] is T1, PI3K gamma (Mus musculus, UniProt Q9JHG7).
T1 construct: endogenous in cells; host or cells: RAW264.7
Briefly: Raw264.7 cell assay: phosphorylation of AKT in C5a stimulated RAW264.7 cells (AlphaLISA). The data set is classed as cell-based. Particulars: pAKT, read-out: PI3K gamma Raw264.7 cell (nM) cellular activity (IC50). The essentials:
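Passage-15 RAW264.7 cells were plated and rested 2 h at 37 °C, then given compound for 30 min at 37 °C before C5a stimulation. Lysates went to phospho-AKT AlphaLISA with a 2 h dark incubation at 25 °C. IC50 came from a four-parameter logistic fit of inhibition against log concentration.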

In data set [6] the target is PI3Kγ (Homo sapiens, UniProt P48736). Briefly: ADP-Glo luminescent assay, enzymatic activity of PI3K gamma. In kind it is biochemical. Particulars: ATP 25 μM; read-out: PI3K gamma (nM) inhibitory activity (IC50).
Chain of PI3Kγ (P48736 whole entry, species assumed): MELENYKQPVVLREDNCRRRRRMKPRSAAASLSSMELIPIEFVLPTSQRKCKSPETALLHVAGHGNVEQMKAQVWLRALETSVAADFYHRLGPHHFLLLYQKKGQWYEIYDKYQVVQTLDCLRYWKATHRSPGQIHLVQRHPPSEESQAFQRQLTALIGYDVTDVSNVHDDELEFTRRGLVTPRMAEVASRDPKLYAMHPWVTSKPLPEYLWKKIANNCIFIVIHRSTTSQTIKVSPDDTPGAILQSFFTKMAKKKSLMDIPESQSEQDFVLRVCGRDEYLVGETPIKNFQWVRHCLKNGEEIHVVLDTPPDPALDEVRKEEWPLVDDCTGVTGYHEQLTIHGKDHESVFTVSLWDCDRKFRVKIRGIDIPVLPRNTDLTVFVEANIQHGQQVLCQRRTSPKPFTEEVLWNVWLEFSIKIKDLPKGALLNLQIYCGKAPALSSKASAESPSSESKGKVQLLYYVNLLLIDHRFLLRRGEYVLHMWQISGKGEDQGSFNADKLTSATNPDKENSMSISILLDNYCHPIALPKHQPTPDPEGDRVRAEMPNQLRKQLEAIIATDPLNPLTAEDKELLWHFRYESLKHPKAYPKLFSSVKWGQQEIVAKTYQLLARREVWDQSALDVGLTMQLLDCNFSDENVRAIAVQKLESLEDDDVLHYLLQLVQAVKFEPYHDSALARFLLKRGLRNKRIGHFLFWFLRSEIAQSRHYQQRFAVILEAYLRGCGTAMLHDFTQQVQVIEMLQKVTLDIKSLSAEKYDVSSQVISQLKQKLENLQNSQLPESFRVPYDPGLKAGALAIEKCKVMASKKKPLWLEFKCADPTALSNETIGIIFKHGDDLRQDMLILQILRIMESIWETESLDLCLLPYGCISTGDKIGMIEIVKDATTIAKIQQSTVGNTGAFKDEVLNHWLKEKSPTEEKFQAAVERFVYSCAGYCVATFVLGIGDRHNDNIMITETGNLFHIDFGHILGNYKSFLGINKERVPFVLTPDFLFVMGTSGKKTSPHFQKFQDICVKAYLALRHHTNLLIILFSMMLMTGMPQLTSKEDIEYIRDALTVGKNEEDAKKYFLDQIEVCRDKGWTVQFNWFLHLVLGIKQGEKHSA
For data set [7], the target named is T2, PI3K delta (Homo sapiens, UniProt O00329).
T2 construct: endogenous in cells; host or cells: Raji
In words: Raji cell assay: phosphorylation of AKT in anti-IgM stimulated Raji cells (AlphaLISA). In kind it is cell-based. Particulars: pAKT, read-out: PI3K delta Raji cell (nM) cellular activity (IC50). As for the experimental part:
This study aims to determine the inhibitory effect of compounds on PI3K gamma and PI3K delta in corresponding cell based assays. PI3K gamma activity was reflected by phosphorylation of AKT in C5a stimulated RAW264.7 cells, and PI3K delta activity was reflected by phosphorylation of AKT in anti-IgM stimulated Raji cells. Phosphorylation of AKT in cells was determined using AlphaLISA technology from PerkinElmer.
Raji cell assay: Prepare Passage 11 Raji cell and add 6 μL of 60K cells per well in 384-well plate. Centrifuge at 500 RPM for 30 s and incubate for 2 hours at 37° C., 5% CO2. Add 30 nL compound by Echo and incubate for 30 min at 37° C. Add 2 μL of IgM (4×, 12 μg/mL) per well, centrifuge at 500 RPM for 30 s and incubate for 10 min at 37° C. Add 2 μL of 5× lysis buffer by Multidrop. Shake 10 min on a plate shaker. Add 5 μL acceptor mix provided in the kit. Centrifuge at 1000 RPM for 1 min. Add 5 μL donor mix provided in the kit. Centrifuge at 1000 RPM for 1 min. Then incubate for 2 hours at 25° C., keep the plate in dark. Read AlphaLISA signal on Envision.
Data analysis: Fit the cpd IC50 from non-linear regression equation. Y=Bottom+(Top−Bottom)/(1+10^((Log IC50−X)*Hill Slope)) X: Log of cpd concentration Y: Inhibition
(Bead proximity is the source of the signal in Alpha formats.)

Data set [8] addresses PI3Kβ (Homo sapiens, UniProt P42338). Briefly: ADP-Glo luminescent assay, enzymatic activity of PI3K beta. In kind it is biochemical. Particulars: ATP 25 μM; read-out: PI3K beta (nM) inhibitory activity (IC50). The procedure: as §1, §2, §3, §4

Chain of PI3Kδ (O00329 whole entry, species assumed, canonical isoform): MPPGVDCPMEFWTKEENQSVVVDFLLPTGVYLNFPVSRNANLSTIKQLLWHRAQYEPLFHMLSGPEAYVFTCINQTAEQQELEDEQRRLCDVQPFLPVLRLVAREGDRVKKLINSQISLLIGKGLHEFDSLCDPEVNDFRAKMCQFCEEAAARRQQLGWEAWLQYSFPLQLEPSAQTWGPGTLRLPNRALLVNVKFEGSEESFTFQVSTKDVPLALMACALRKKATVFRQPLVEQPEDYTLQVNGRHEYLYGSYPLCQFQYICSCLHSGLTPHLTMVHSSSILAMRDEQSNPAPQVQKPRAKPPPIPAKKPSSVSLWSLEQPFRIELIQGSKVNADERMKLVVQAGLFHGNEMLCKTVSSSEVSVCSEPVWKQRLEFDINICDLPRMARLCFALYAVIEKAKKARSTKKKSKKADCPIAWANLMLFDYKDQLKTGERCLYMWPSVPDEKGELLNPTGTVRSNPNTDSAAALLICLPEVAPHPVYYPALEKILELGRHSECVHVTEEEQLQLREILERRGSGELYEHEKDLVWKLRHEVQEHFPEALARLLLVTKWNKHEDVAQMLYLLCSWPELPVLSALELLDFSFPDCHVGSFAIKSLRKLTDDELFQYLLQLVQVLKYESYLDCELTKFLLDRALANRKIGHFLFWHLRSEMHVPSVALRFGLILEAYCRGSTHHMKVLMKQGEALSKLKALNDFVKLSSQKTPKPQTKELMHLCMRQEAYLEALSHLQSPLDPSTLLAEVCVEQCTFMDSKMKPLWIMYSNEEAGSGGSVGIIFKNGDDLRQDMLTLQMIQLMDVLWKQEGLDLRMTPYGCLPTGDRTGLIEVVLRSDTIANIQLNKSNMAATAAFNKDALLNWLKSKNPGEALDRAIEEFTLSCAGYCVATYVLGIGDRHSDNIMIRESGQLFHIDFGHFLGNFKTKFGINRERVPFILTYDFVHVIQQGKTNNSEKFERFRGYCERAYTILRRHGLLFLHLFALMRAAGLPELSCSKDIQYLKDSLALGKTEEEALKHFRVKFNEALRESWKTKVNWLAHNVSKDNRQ
Chain of PI3Kδ (P27986 whole entry partner, species assumed, canonical isoform): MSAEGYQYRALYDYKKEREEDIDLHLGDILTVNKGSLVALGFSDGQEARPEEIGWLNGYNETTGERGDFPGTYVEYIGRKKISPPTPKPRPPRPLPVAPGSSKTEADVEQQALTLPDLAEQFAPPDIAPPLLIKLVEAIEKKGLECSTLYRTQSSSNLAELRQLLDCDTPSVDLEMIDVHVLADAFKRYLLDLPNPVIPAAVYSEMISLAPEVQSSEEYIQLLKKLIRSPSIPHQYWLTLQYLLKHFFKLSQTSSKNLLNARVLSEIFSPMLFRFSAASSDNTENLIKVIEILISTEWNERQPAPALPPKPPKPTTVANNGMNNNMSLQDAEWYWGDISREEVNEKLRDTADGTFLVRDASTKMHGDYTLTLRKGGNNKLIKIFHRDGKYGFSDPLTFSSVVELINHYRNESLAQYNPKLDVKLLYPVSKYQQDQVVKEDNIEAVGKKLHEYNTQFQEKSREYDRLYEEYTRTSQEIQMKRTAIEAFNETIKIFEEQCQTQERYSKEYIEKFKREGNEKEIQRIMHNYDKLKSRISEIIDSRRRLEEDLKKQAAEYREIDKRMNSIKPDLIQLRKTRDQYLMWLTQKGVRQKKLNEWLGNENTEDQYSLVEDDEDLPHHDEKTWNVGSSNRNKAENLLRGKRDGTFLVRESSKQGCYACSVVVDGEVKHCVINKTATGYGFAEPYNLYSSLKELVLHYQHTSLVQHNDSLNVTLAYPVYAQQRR
Chain of PI3Kβ (P42338 whole entry, species assumed): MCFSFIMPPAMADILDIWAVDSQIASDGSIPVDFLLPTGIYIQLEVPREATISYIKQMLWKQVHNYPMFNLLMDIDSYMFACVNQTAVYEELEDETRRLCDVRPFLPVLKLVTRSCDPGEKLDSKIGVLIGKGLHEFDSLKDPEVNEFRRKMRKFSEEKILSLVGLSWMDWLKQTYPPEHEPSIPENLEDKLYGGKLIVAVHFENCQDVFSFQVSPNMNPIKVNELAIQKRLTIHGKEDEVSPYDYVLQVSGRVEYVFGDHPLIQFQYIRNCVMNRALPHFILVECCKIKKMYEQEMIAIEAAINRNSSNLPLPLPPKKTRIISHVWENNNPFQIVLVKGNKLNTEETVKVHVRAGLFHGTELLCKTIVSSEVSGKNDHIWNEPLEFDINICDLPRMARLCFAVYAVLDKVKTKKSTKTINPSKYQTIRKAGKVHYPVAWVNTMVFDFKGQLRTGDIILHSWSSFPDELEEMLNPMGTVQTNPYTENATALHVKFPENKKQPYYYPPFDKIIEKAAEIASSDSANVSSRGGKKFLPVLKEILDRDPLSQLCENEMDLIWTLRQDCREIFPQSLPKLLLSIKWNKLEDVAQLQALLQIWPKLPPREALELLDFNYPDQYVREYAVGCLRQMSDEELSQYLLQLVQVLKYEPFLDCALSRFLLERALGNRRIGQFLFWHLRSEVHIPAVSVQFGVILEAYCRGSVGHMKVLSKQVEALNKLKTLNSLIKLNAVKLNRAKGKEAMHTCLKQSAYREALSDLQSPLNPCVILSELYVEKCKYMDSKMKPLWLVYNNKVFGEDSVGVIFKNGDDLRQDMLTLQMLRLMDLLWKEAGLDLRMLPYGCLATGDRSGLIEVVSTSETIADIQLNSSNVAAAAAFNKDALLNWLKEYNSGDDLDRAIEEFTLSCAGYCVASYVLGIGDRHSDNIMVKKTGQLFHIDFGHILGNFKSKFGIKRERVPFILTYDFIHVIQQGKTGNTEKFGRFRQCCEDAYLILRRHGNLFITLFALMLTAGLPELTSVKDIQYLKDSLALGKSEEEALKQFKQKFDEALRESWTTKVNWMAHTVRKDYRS
Chain of PI3Kβ (P27986 whole entry partner, species assumed): as the sequence (P27986 whole entry partner, species assumed, canonical isoform) above
Chain of PI3Kα (P42336 whole entry, species assumed, canonical isoform): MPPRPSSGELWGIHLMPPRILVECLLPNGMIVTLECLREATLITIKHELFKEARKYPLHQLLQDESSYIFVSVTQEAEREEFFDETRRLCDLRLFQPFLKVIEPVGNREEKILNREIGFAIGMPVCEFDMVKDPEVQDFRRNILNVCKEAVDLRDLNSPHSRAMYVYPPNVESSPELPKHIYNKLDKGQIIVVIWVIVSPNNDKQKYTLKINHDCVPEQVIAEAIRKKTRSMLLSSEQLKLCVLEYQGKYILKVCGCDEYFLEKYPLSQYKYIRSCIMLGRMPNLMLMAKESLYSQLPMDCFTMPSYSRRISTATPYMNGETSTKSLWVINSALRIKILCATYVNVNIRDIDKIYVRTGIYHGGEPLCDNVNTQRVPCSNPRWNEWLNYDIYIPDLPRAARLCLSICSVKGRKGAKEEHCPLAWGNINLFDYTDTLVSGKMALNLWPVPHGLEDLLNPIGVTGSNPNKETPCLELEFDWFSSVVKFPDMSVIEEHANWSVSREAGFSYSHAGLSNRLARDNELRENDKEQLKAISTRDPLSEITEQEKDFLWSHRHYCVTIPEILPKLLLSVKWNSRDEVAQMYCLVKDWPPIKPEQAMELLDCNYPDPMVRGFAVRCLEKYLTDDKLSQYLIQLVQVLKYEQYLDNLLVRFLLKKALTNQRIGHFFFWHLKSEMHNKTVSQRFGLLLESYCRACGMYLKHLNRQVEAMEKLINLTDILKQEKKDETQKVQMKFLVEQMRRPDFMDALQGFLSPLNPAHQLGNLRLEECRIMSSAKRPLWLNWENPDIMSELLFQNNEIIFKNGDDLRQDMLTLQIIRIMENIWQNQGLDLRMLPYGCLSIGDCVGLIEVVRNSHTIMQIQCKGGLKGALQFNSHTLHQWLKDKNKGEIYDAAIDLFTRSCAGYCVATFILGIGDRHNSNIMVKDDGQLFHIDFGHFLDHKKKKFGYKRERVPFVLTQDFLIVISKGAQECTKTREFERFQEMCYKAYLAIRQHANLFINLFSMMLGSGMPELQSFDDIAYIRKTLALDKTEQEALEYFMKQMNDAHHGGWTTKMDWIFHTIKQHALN
Chain of PI3Kα (P27986 whole entry partner, species assumed, canonical isoform): as the sequence (P27986 whole entry partner, species assumed, canonical isoform) above

For `CC(=O)Nc1nc(C)c(-c2cc3c(c(NS(C)(=O)=O)c2)C(=O)N([C@@H](C)C2CC2)C3)s1` [AZ-17], in data set [1], the “Vssobs” value is on record as 0.7 L/kg.
By solubility is commonly meant the concentration that dissolves in the medium under given conditions. Turning to `CCS(=O)(=O)Nc1nc(-c2sc(NC(C)=O)nc2C)cc2c1C(=O)N([C@@H](C)C1CC1)C2` [Compound 23, (S)-N-(5-(2-(1-cyclopropylethyl)-4-(ethylsulfonamido)-3-oxo-2,3-dihydro-1H-pyrrolo[3,4-c]pyridin-6-yl)-4-methylthiazol-2-yl)acetamide], the IC50 in data set [2] is 3330 nM; in data set [3], 1210 nM; in data set [5] it was 2 nM; in data set [6], 1 nM; in data set [7], 1510 nM; in data set [8], greater than 10000 nM. Besides, the solubility at 2 h in data set [4] was found to be 202 µM (≈ 93.6 µg/mL).
Turning to `CC(=O)Nc1nc(C)c(-c2cc3c(c(N4CCS(=O)(=O)CC4)n2)C(=O)N([C@@H](C)C2CC2)C3)s1` [Compound 38, (S)-N-(5-(2-(1-cyclopropylethyl)-4-(1,1-dioxidothiomorpholino)-3-oxo-2,3-dihydro-M-pyrrolo[3,4-c]pyridin-6-yl)-4-methylthiazol-2-yl)acetamide], the IC50 in data set [2] was 8420 nM; in data set [3], 1550 nM; in data set [5], 9.3 nM; in data set [6], 1.9 nM; in data set [8], greater than 10000 nM. The compound also came in with a solubility at 2 h in data set [4] of 2.3 µM (≈ 1.13 µg/mL).
